Source: patent EP2153845A1, “Endoglin peptides, vaccines and methods for preparing the same” (Julius-Maximilians-Universität Würzburg, priority 2008, dated 2010)

Columns and labels:
[1] = tested on: peripheral blood lymphocytes of melanoma patients; experiment: human IFN-γ ELISPOT after in vitro peptide stimulation of PBL; type: cell-based; settings: for specific immune responses / T cell activity in vitro (IFN-γ ELISPOT): PBL of melanoma patients prestimulated in vitro with 10 µM peptide, Figs. 4 and 5; for specific responses in peripheral blood of melanoma patients in comparison to control experiments and parental peptides: IFN-γ ELISPOT, modified versus parental peptides, Fig. 5
Protocol: To extend the sensitivity of the ELISPOT assay, PBL were stimulated once in vitro before analysis (McCutcheon et al., 1997). At day 0, PBL were thawed or freshly isolated from peripheral blood and plated in a cell concentration of 1x10^6/ml and 5 ml/well in 6-well plates (Greiner GmbH, Frickenhausen, Germany) in X-vivo medium (Cambrex Biosciences, Verviers, Belgium) with 10% heat inactivated human AB serum in the presence of 10 µM peptide (GeneScript Corporation, Piscataway, New Jersey, USA). On day 1 and 4 40 U IL-2/ml (Proleukin, Chiron GmbH, Munich, Gemany) were added to the culture. The cultured cells were tested for reactivity in ELISPOT on day 7.
The human IFN-γ ELISPOT assay was used to quantify peptide epitope-specific IFN-γ-releasing effector cells as described in Berke et al. 2000. Nitrocellulose-bottomed 96-well plates (MultiScreen MAIP N45, Millipore GmbH, Schwalbach, Germany) were activated with 35% ethanol, washed with PBS and coated with anti-IFN-γ antibody (1-D1 K, Mabtech, Hamburg, Germany). The wells were washed and blocked by X-vivo medium before adding 1x10^4 stimulator T2 cells loaded with or without 10 µM peptide and 3x10^5, 1x10^5 or 3x10^4 effector cells. After incubation overnight the wells were washed before addition of biotinylated secondary antibody (7-B6-1-Biotin, Mabtech, Hamburg, Germany). The plates were incubated for 2 h, washed, and streptavidine-enzyme conjugate (Streptavidin-ALP-PQ, Mabtech, Hamburg, Germany) was added. Incubation at room temperature for 1 h was followed by addition of enzyme substrate NBT/BCIP (Mabtech, Hamburg, Germany). The reaction was stopped by washing with tap water upon the appearance of dark purple spots. Spots were counted using the ImmunoSpot Series 2.0 Analyzer (CTL Cellular Technology Ltd., Schwäbisch Gmünd, Germany). The peptide-specific CTL frequency was calculated from the numbers of spot-forming cells. All assays were performed in duplicates. Responders were defined as having an average number of > 25 antigen-specific spots per 10^5 Cells (Spots with peptide - Spots without peptide).

[2] = tested on: HLA-A2/k^b transgenic mice; experiment: immunization of mice and analysis of immune responses by murine IFN-γ ELISPOT; type: in vivo; settings: Fig. 6; for T cell IFN-γ responses after immunization of mice: HLA-A2/k^b transgenic mice vaccinated with peptides and incomplete Freund's adjuvant, spleen cells in ELISPOT; for immune responses in the mouse model in comparison to control experiments and parental epitopes: HLA-A2/k^b transgenic mice, modified versus parental peptides
Protocol: HLA-A2/k^b transgenic mice (deposited by Linda A. Sherman at MMRCC, University of North Carolina, Chapel Hill, USA) were immunized with a mixture of 5-6 CD105 peptides (5 µg/peptide) and incomplete Freund's adjuvant 7 times once weekly. Spleen cells were analyzed in a murine IFN-γ ELISPOT after in vitro stimulation. Cells were stimulated for six days with 200 U IL-2/ml and 10 µM peptide loaded, mitomycin C treated LPS blasts, generated by stimulation of HLA-A2k^b spleen cells with 25 µg/ml LPS (Sigma-Aldrich, Taufkirchen, Germany) and 7 µg/ml dextran sulfate for three days. Subsequently 3x10^5, 1x10^5, and 0.3x10^5 spleen cells were seeded with or without 10 µM peptide in RPMI 1640/10% FCS in duplicates in nitrocellulose-bottomed 96-well plates (MultiScreen MAIP N45, Millipore GmbH) coated with an IFN-γ specific coating antibody (Mabtech) and blocked with cell culture medium and incubated overnight. The development of the murine IFN-γ ELISPOT was done as described for the human ELISPOT, with the exception that PBS/0.05% Tween 20 was used as washing buffer and the biotinylated anti-mouse IFN-γ antibody (Mabtech, diluted in PBS/1% BSA) as detection antibody. Table 1: Sequence listing

[3] = target: T1, human leukocyte antigen A2 (HLA-A2) on the acid-stripped HLA-A2 positive cell line JY (human); experiment: competitive binding assay vs fluorescein-labeled reference peptide on acid-stripped HLA-A2 positive JY cells, flow cytometry
T1 construct: whole, on cells; Empty, acid-stripped HLA-A2 on JY cells; also called HLA-A*0201

[4] = target: T1, human leukocyte antigen A2 (HLA-A2) on …; experiment: competitive binding assay on acid-stripped JY cells, flow cytometry

## SEQ ID NO: 1 (ALLLASCSL)
[1]
  specific immune responses / T cell activity in vitro (IFN-γ ELISPOT): induce T cell activity in vitro very efficiently

## SEQ ID NO: 3 (LILQGPPYV)
[1]
  specific immune responses / T cell activity in vitro (IFN-γ ELISPOT): induce T cell activity in vitro very efficiently
[2]
  T cell IFN-γ responses after immunization of mice: high T cell IFN-γ responses

## SEQ ID NO: 7 (SVSEFLLQL)
[1]
  specific immune responses / T cell activity in vitro (IFN-γ ELISPOT): induce T cell activity in vitro very efficiently
[2]
  T cell IFN-γ responses after immunization of mice: high T cell IFN-γ responses

## SEQ ID NO: 8 (LLHFYTVPI)
[1]
  specific immune responses / T cell activity in vitro (IFN-γ ELISPOT): induce T cell activity in vitro very efficiently
[2]
  T cell IFN-γ responses after immunization of mice: high T cell IFN-γ responses

## SEQ ID NO: 10 (LLTAALWYI)
[1]
  specific immune responses / T cell activity in vitro (IFN-γ ELISPOT): induce T cell activity in vitro very efficiently
[2]
  T cell IFN-γ responses after immunization of mice: high T cell IFN-γ responses

## SEQ ID NO: 12 (SLVASFVEV)
[1]
  specific responses in peripheral blood of melanoma patients in comparison to control experiments and parental peptides: multiplied
  specific immune responses / T cell activity in vitro (IFN-γ ELISPOT): induce T cell activity in vitro very efficiently
[2]
  T cell IFN-γ responses after immunization of mice: high T cell IFN-γ responses
  immune responses in the mouse model in comparison to control experiments and parental epitopes: enhanced immune responses

## SEQ ID NO: 15 (FLIGALLTV)
[1]
  specific responses in peripheral blood of melanoma patients in comparison to control experiments and parental peptides: multiplied
  specific immune responses / T cell activity in vitro (IFN-γ ELISPOT): induce T cell activity in vitro very efficiently
[2]
  T cell IFN-γ responses after immunization of mice: high T cell IFN-γ responses
  immune responses in the mouse model in comparison to control experiments and parental epitopes: enhanced immune responses

## SEQ ID NO: 16 (LLTAALWYV)
[1]
  specific responses in peripheral blood of melanoma patients in comparison to control experiments and parental peptides: multiplied
  specific immune responses / T cell activity in vitro (IFN-γ ELISPOT): induce T cell activity in vitro very efficiently
[2]
  T cell IFN-γ responses after immunization of mice: high T cell IFN-γ responses
  immune responses in the mouse model in comparison to control experiments and parental epitopes: enhanced immune responses

## LLHFYTVPV (also called AA541: valine) [hCD105 533-541 (541V)]
[3]
  IC50: ≤ 3.5 µM

B1: hCD105 533-541 (peptide)
peptide: LLHFYTVPI
notes: Synthetic nonamer selected from human CD105 (endoglin); also called parental peptide
[4]
  binding result: binds

B2: hCD105 482-490 (peptide)
peptide: SVSEFLLQL
notes: as for B1
[4]
  binding result: binds

B3: hCD105 298-306 (peptide)
peptide: GLLGEARML
notes: as for B1
[4]
  binding result: binds

B4: hCD105 309-317 (peptide)
peptide: SIVASFVEL
notes: as for B1
[4]
  binding result: binds

B5: hCD105 309-317 (310L, 317V) (peptide)
peptide: SLVASFVEV
notes: also called AA 310: leucine AA 317: valine
[3]
  IC50: ≤ 3.5 µM

B6: hCD105 419-427 (peptide)
peptide: SMISNEAVV
notes: as for B1
[4]
  binding result: binds

B7: hCD105 482-490 (483L, 490V) (peptide)
peptide: SLSEFLLQV
notes: also called AA 483: leucine AA 490: valine
[3]
  IC50: ≤ 3.5 µM

B8: hCD105 61-69 (peptide)
peptide: ILEVHVLFL
notes: as for B1
[4]
  binding result: binds

## LLLQGPPYV (also called AA 252: leucine) [hCD105 251-259 (252L)]
[3]
  IC50: ≤ 3.5 µM

B9: hCD105 251-259 (peptide)
peptide: LILQGPPYV
notes: as for B1
[4]
  binding result: binds

## LLTAALWYV (also called AA 613: valine) [hCD105 605-613 (613V)]
[3]
  IC50: ≤ 3.5 µM

B10: hCD105 605-613 (peptide)
peptide: LLTAALWYI
notes: as for B1
[4]
  binding result: binds

B11: hCD105 11-19 (peptide)
peptide: ALLLASCSL
notes: as for B1
[4]
  binding result: binds

## FLIGALLTV (also called AA 608: valine) [hCD105 600-608 (608V)]
[3]
  IC50: ≤ 3.5 µM

B12: hCD105 600-608 (peptide)
peptide: FLIGALLTA
notes: as for B1
[4]
  binding result: binds
